# Assay results from ChEMBL document CHEMBL3988181, “GlaxoSmithKline Published Kinase Inhibitor Set 2 Onchocerca lienalis Screening Data”.
# Values joined by “and” are separate entries in the source; they are usually repeats but may differ in a detail not shown here. Equal values may be shown once.
# Assay: GSK PKIS2: Screen against O. lienalis microfilariae, single point, at 3.1uM to assess reduction in motility. Compounds were also tested for cytotoxicity against Rhesus Monkey LLCMK2 cells.
# Assay type: functional, Onchocerca lienalis, LLC-MK2
# Conditions: CELL_LINE LLCMK2; CELL_SUPPLIER ECACC; CONC 3.1 uM; ORGANISM_SUPPLIER Extracted from peri-umbilical skin obtained from naturally infected cattle in the UK; temperature 37 degree C
row,Structure (SMILES),MOTILITY REDUCTION/CYTOTOXICITY [%]
1,COc1ccc(Nc2nccc(-c3ccc(NC(=O)c4cc5cc(F)ccc5[nH]4)cc3)n2)cc1,60
2,Nc1ncnc2[nH]c(-c3ccccc3)nc12,0
3,Nc1ncnc2scc(-c3ccc(NC(=O)Cc4cc(F)ccc4F)cc3)c12.O=C(O)C(F)(F)F,40
4,O=C(Nc1ccccc1F)NC1CCN(c2ccnc(Nc3ccc(F)cc3)n2)C1 (stereo not drawn),0
5,CNc1nccc(-c2c(-c3ccc(F)cc3)ncn2C2CCN(C)CC2)n1,13.4
6,Cc1ccc(NC(=O)Nc2ccc(Cl)cc2)cc1-c1ccc(C(=O)Nc2ccncc2)cc1,86.7
7,Fc1cccc(COc2ccc(Nc3ncnc4sc(-c5ccc[nH]5)cc34)cc2Cl)c1,100
8,Cc1cccc2c(-c3ccncc3)c(-c3ccc(F)cc3)nn12,46.7
9,O=C1NC(=O)C(c2ccccc2Cl)=C1Nc1ccccc1,0
10,NC[C@H](CC1CCCCC1)NC(=O)c1ccc(-c2ccnc3[nH]ccc23)s1,66.7
11,O=C(Nc1n[nH]c2nc(-c3nccs3)c(Br)cc12)C1CCCC1,20
12,CSc1nn2c(=O)cc(N3CCOCC3)nc2n1Cc1cccc(Cl)c1Cl,46.7
13,Cc1ccc(C)c(Oc2nccc(-c3c(-c4ccc(F)cc4)ncn3C3CCNCC3)n2)c1,26.7
14,Cc1cccc(-c2cc(-c3c[nH]nc3-c3ccccn3)ccn2)c1,0
15,Cc1nnc(-c2ccc(C)c(-c3ccc(C(=O)O)cc3)c2)o1,33.4
16,COc1cccc(C2=C(Nc3cccc(O)c3)C(=O)NC2=O)c1,13.4
17,COc1cc2nccc(Nc3cccc(Oc4ccccc4)c3)c2cc1OC,0
18,NC(=O)c1cccc(Nc2nccc(Nc3ccc(Oc4c(Cl)cccc4Cl)c(Cl)c3)n2)c1,0
19,Nc1nc(-c2ccc3c(N)n[nH]c3c2)cc(N2CCCC2)n1,0
20,CNc1nc(-c2ccc3c(N)n[nH]c3c2)cc(N2C[C@@H](C(=O)NC3CCCCC3)OC[C@H]2C)n1,0
21,FC(F)(F)c1ccc(/C=C/c2cncnc2Nc2ccc3[nH]c(Cc4ccccc4)nc3c2)cc1,100
22,CS(=O)(=O)c1ccc(-c2nc3n(c2-c2ccncc2)CCC3)cc1,0

row,Structure (SMILES),MOTILITY REDUCTION/CYTOTOXICITY [%]
1,CS(=O)(=O)CCNCc1ccc(-c2ccc3ncnc(Nc4ccc(OCc5ccccc5)c(Cl)c4)c3c2)o1,20
2,COc1ccc(-n2cnc3c(N)ncnc32)cc1,0
3,COC(=O)c1cccc(NC(=O)NCCNc2ccnc(Nc3ccc(F)cc3)n2)c1,0
4,Cc1n[nH]c2cc(Nc3ccnc(Nc4cccc(CN5CCOCC5)c4)n3)ccc12,0
5,Cc1n[nH]c2ccc(-c3cc(OC[C@@H](N)Cc4ccccc4)cnc3-c3ccoc3)cc12,0
6,Cc1ccc(C)c(NC(=O)NC2CCN(c3ccnc(Nc4ccc(F)cc4)n3)C2)c1 (stereo not drawn),33.4
7,NCC(NC(=O)c1cc(-c2cn[nH]c2)c(-c2ccnc3[nH]ccc23)s1)c1ccccc1 (stereo not drawn),0
8,OCCCNc1nccc(-c2c(-c3cccc(C(F)(F)F)c3)nn3cc(C(F)(F)F)ccc23)n1,0
9,COC(=O)c1cccc(NC(=O)NC2CCN(c3ccnc(Nc4cc(OC)c(OC)c(OC)c4)n3)C2)c1 (stereo not drawn),66.7
10,CN(C)Cc1ccc(-c2ccc3c(Nc4ccc(Oc5ccccn5)cc4)ccnc3c2)o1,0
11,Cc1ccc(NC(=O)c2ccc(Cl)cc2)cc1-c1ccc(C(=O)Nc2ccncc2)cc1,66.7
12,CCn1c(-c2ccncc2)nc2cnccc21,0
13,N#Cc1ccc(CCNc2nccc(-c3cccc(CN4CCNCC4)c3)n2)cc1,0
14,NS(=O)(=O)CCc1cccc(Nc2nccc(-c3c(-c4cccc(NC(=O)c5c(F)cccc5F)c4)nn4ccccc34)n2)c1,33.4
15,COc1ccc(Nc2nccc(N3CCC(NC(=O)C(C)c4ccc(Cl)cc4)CC3)n2)cc1 (stereo not drawn),33.4
16,O=C(NCCCN1CCOCC1)c1cccc(Nc2nccc(Nc3ccc(Oc4ccccc4)cc3)n2)c1,13.4
17,Nc1n[nH]c2nnc(-c3ccccc3)cc12,0
18,O=C1NC(=O)C(c2ccc(Cl)cc2)=C1Nc1cccc(O)c1,13.4
19,CN1CCN(CCCNc2nccc(-c3c(-c4ccc(F)cc4)nn4cc(C(N)=O)ccc34)n2)CC1,13.4
20,O=C(NCC1CC1)c1ccc(-c2cc(C(=O)NC3CC3)ccc2F)cc1,0
21,COc1cc(Nc2nccc(N3CCC(NC(=O)C4COc5ccccc5O4)C3)n2)cc(OC)c1OC (stereo not drawn),0
22,COc1cccc(C2=C(Nc3ccc(Cl)c(C(=O)O)c3)C(=O)NC2=O)c1,0

row,Structure (SMILES),MOTILITY REDUCTION/CYTOTOXICITY [%]
1,NC(=O)Nc1sc(-c2ccc(F)cc2)cc1C(N)=O,33.4
2,CCn1c(-c2ccoc2)nc2cnccc21,0
3,COc1cccc(C2=C(Nc3cccc(C(=O)O)c3)C(=O)NC2=O)c1,0
4,CC[C@@H]1CO[C@H](C(=O)Nc2ccccc2)CN1c1cc(-c2ccc3c(N)n[nH]c3c2)nc(NC)n1,0
5,CCn1c(-c2nonc2N)nc2cncc(Br)c21,33.4
6,O=c1[nH]ccc2nc(N[C@@H]3CCCNC3)nc(Nc3ccc(S(=O)(=O)N4CCOCC4)cc3)c12,46.7
7,Cc1ccc(Nc2ccnc(Nc3ccc4c(c3)CS(=O)(=O)C4)n2)cc1O,80
8,COc1ccc(Nc2nccc(N3CCC(NC(=O)Nc4cc(C)ccc4C)C3)n2)cc1 (stereo not drawn),0
9,CNc1cc(-c2ccc3c(N)n[nH]c3c2)nc(N)n1,0
10,Cc1ccc(NC(=O)Nc2cc(C(C)(C)C)nn2-c2ccccc2)cc1,0
11,Nc1ncc(-c2ccc3nccc(-c4ccncc4)c3c2)cc1S(=O)(=O)N1CCOCC1,40
12,Fc1ccc(-c2nc3n(c2-c2ccncc2)CCS3)cc1,13.4
13,CC(C)S(=O)(=O)N1CCN(Cc2ccc3c(c2)nc(NC(=O)c2ccsc2)n3C[C@H](O)c2ccccc2)CC1,0
14,CN(C(=O)c1ccc(-c2cc(-c3c[nH]nc3-c3ccccn3)ccn2)cc1)C1CCOCC1,0
15,CNc1nccc(-c2ccc3c(N)n[nH]c3c2)n1,0
16,Cc1ccc(-c2cc(-c3c[nH]nc3-c3ccccn3)ccn2)cc1,0
17,Nc1n[nH]c2nnc(-c3ccccc3)c(-c3ccccc3)c12,0
18,NS(=O)(=O)c1cccc(-c2ccc3nccc(-c4cccc(S(N)(=O)=O)c4)c3c2)c1,0
19,c1ccc(Oc2ccc(Nc3ccnc4cc(-c5ccc(CNCCN6CCOCC6)o5)ccc34)cc2)nc1,0
20,O=C1NC(=O)C(c2ccccc2Cl)=C1Nc1cccc(C(=O)O)c1,0
21,CCC(CC)(CC)n1cnc2c(N)ncnc21,0
22,COc1cc2ncn(-c3cc(OCc4ccncc4)c(C(N)=O)s3)c2cc1OC,0

row,Structure (SMILES),MOTILITY REDUCTION/CYTOTOXICITY [%]
1,CC(C)N1CCC(n2cnc(-c3ccc(F)cc3)c2-c2ccnc(N)n2)CC1,0
2,O=C(Nc1cccc(-c2nn3ccccc3c2-c2ccnc(Nc3cccc(F)c3)n2)c1)c1c(F)ccc(F)c1Cl,0
3,O=C(Nc1ccccc1F)NC1CCN(c2ccnc(Nc3ccc(F)cc3)n2)CC1,53.4
4,O=C1NC(=O)C(c2ccccc2)=C1Nc1cc(Cl)c(O)c(Cl)c1,0
5,NCCCC(NC(=O)c1cc(Br)c(-c2ccnc3[nH]ccc23)s1)c1ccccc1 (stereo not drawn),0
6,C[C@@H]1CC[C@H](C(=O)NC2CCCCC2)CN1c1cc(-c2ccc3c(N)n[nH]c3c2)nc(N)n1,0
7,Cc1ccc(S(=O)(=O)Nc2ccc(Nc3nccc(Nc4cccc5[nH]ncc45)n3)cc2)cc1,0
8,Cc1ccc2c(-c3ccnc(Nc4ccc(C(F)(F)F)cc4)n3)cnn2n1,0
9,O=C(O)c1ccc(-c2nc(-c3ccc(F)cc3)c(-c3ccncc3)[nH]2)cc1,0
10,Cn1cc(-c2ccc3c(c2)CCN3C(=O)Cc2cccc(C(F)(F)F)c2)c2c(N)ncnc21,0
11,Cc1cccc(-c2nc(Nc3cccc(C(N)=O)c3)c3ccccc3n2)n1,46.7
12,FC(F)(F)c1ccc(-c2cc(-c3c[nH]nc3-c3ccccn3)ccn2)cc1,0
13,COc1ccc(-c2nc3n(c2-c2ccncc2)CCC3)cc1,0
14,NCCC(NC(=O)c1cc(Br)c(-c2ccnc3[nH]ccc23)s1)c1ccccc1 (stereo not drawn),13.4
15,O=C1NC(=O)C(c2ccc(Cl)cc2)=C1Nc1cccc(Cl)c1,33.4
16,Cc1ccc(C)c(NC(=O)Nc2ccc(C)c(-c3ccc(C(=O)Nc4ccncc4)cc3)c2)c1,33.4
17,Cc1cc(-c2ccc3c(c2)CC[C@@H](N[C@@H](C)c2ccccc2)C3)cnc1N,33.4
18,Cc1ccc(C(=O)Nc2ccc(Nc3ccnc4cc(-c5nccs5)ccc34)cc2O)cc1,0
19,Cc1ccc(C(=O)NC2CCCC2)cc1-c1ccc(C(=O)NCC2CC2)cc1,20
20,COc1cccc(-c2[nH]c(-c3ccccc3)nc2-c2ccncc2)c1,33.4
21,O=S(=O)(c1ccc(-c2ccnc3[nH]ccc23)cc1)N1CCCC1,0

# Same assay, conditions: CELL_LINE LLCMK2; CELL_SUPPLIER ECACC; CONC 3.1 uM; ORGANISM_SUPPLIER Extracted from peri-umbilical skin obtained from naturally infected cattle in the UK; temperature 37 degree C; 3.1 µM
row,Structure (SMILES),MOTILITY REDUCTION/CYTOTOXICITY
1,CSc1nn2c(=O)cc(N3CCOCC3)nc2n1Cc1cccc(C(F)(F)F)c1C,16.7% and 0%
